Experimental data published in ChEMBL document CHEMBL1201862, “PubChem BioAssay data set” (2004).
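Step 1: Grow cells in 96-well plates. Step 2: Expose to compound for 48 hours at 5 concentrations. Step 3: Interpolate endpoints linearly; if unreached, use highest concentration. GI50 is the concentration that inhibits growth by half.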 The source made the active and inactive calls. Cut-off read from the data, not from the text of the source: active = GI50 up to about 1.1 µM and inactive = higher.

What was measured:
Test in all cases: NCI-60 cell line screen, 48 h
786-0 = tested on: 786-0
A498 = tested on: A498
A549 = tested on: A549
ACHN = tested on: ACHN
CAKI-1 = tested on: CAKI-1
CCRF-CEM = tested on: CCRF-CEM
COLO 205 = tested on: COLO 205
DLD-1 = tested on: DLD-1
DMS-114 = tested on: DMS-114
DMS-273 = tested on: DMS-273
HCC 2998 = tested on: HCC 2998
HCT-116 = tested on: HCT-116
HCT-15 = tested on: HCT-15
HL-60 = tested on: HL-60
HOP-18 = tested on: HOP-18
HOP-62 = tested on: HOP-62
HOP-92 = tested on: HOP-92
HT-29 = tested on: HT-29
IGROV-1 = tested on: IGROV-1
K562 = tested on: K562
KM-20L2 = tested on: KM-20L2
KM12 = tested on: KM12
LOX IMVI = tested on: LOX IMVI
LXFL 529 = tested on: LXFL 529
M14 = tested on: M14
M19-MEL = tested on: M19-MEL
MOLT-4 = tested on: MOLT-4
Malme-3M = tested on: Malme-3M
NCI-H226 = tested on: NCI-H226
NCI-H460 = tested on: NCI-H460
NCI-H522 = tested on: NCI-H522
OVCAR-4 = tested on: OVCAR-4
OVCAR-5 = tested on: OVCAR-5
OVCAR-8 = tested on: OVCAR-8
RPMI-8226 = tested on: RPMI-8226
RXF 393 = tested on: RXF 393
RXF 631 = tested on: RXF 631
SF-268 = tested on: SF-268
SF-295 = tested on: SF-295
SF-539 = tested on: SF-539
SK-MEL-2 = tested on: SK-MEL-2
SK-MEL-5 = tested on: SK-MEL-5
SK-OV-3 = tested on: SK-OV-3
SN12C = tested on: SN12C
SNB-19 = tested on: SNB-19
SNB-75 = tested on: SNB-75
SNB-78 = tested on: SNB-78
SR = tested on: SR
SW-620 = tested on: SW-620
TK-10 = tested on: TK-10
U-251 = tested on: U-251
UACC-257 = tested on: UACC-257
UACC-62 = tested on: UACC-62
UO-31 = tested on: UO-31
EKVX = tested on: EKVX
NCI-H23 = tested on: NCI-H23
OVCAR-3 = tested on: OVCAR-3
SK-MEL-28 = tested on: SK-MEL-28

In the case of O=C1OC(=O)c2c1nc1ccccc1c2-c1ccccc1, the GI50 (786-0) is reported as > 100 µM (inactive), the GI50 (A498) is reported as > 100 µM (inactive) and the GI50 (A549) is reported as > 100 µM (inactive). The GI50 (ACHN) was > 100 µM (inactive), the GI50 (CAKI-1) was > 100 µM (inactive) and the GI50 (CCRF-CEM) was > 100 µM (inactive). The GI50 (COLO 205) was > 100 µM (inactive), the GI50 (DLD-1) was > 100 µM (inactive) and the GI50 (DMS-114) was > 100 µM (inactive). For the same compound, the GI50 (DMS-273) was > 100 µM (inactive), the GI50 (HCC 2998) was > 100 µM (inactive) and the GI50 (HCT-116) was > 100 µM (inactive). The GI50 (HCT-15) was > 100 µM, the GI50 (HL-60) was > 100 µM (inactive) and the GI50 (HOP-18) was > 100 µM (inactive). For the same compound, the GI50 (HOP-62) was > 100 µM (inactive), the GI50 (HOP-92) was > 100 µM (inactive) and the GI50 (HT-29) was > 100 µM (inactive). For the same compound, the GI50 (IGROV-1) was > 100 µM (inactive), the GI50 (K562) was > 100 µM (inactive) and the GI50 (KM-20L2) was > 100 µM (inactive). For the same compound, the GI50 (KM12) was > 100 µM (inactive), the GI50 (LOX IMVI) was > 100 µM (inactive) and the GI50 (LXFL 529) was > 100 µM (inactive). For the same compound, the GI50 (M14) was > 100 µM (inactive), the GI50 (M19-MEL) was > 100 µM (inactive) and the GI50 (MOLT-4) was > 100 µM (inactive). For the same compound, the GI50 (Malme-3M) was > 100 µM (inactive), the GI50 (NCI-H226) was > 100 µM (inactive) and the GI50 (NCI-H460) was > 100 µM (inactive). The GI50 (NCI-H522) was > 100 µM (inactive), the GI50 (OVCAR-4) was > 100 µM (inactive) and the GI50 (OVCAR-5) was > 100 µM (inactive). The GI50 (OVCAR-8) was > 100 µM (inactive), the GI50 (RPMI-8226) was > 100 µM (inactive) and the GI50 (RXF 393) was > 100 µM (inactive). The GI50 (RXF 631) was > 100 µM (inactive), the GI50 (SF-268) was > 100 µM (inactive) and the GI50 (SF-295) was > 100 µM (inactive). For the same compound, the GI50 (SF-539) was > 100 µM (inactive), the GI50 (SK-MEL-2) was > 100 µM (inactive) and the GI50 (SK-MEL-5) was > 100 µM (inactive). The GI50 (SK-OV-3) was > 100 µM (inactive), the GI50 (SN12C) was > 100 µM (inactive) and the GI50 (SNB-19) was > 100 µM (inactive). The GI50 (SNB-75) was > 100 µM (inactive), the GI50 (SNB-78) was > 100 µM (inactive) and the GI50 (SR) was > 100 µM (inactive). For the same compound, the GI50 (SW-620) was > 100 µM (inactive), the GI50 (TK-10) was > 100 µM (inactive) and the GI50 (U-251) was > 100 µM (inactive). For the same compound, the GI50 (UACC-257) was > 100 µM (inactive), the GI50 (UACC-62) was > 100 µM (inactive) and the GI50 (UO-31) was > 100 µM (inactive).
Cc1ccc(-c2cc(-c3ccccc3)c(C#N)c(=O)[nH]2)cc1 was tested, and the GI50 (786-0) was > 100 µM (inactive), the GI50 (A498) was > 100 µM (inactive) and the GI50 (A549) was > 100 µM (inactive). The GI50 (ACHN) was > 100 µM (inactive), the GI50 (CCRF-CEM) was > 100 µM (inactive) and the GI50 (COLO 205) was > 100 µM (inactive). For the same compound, the GI50 (DLD-1) was > 100 µM (inactive), the GI50 (DMS-114) was > 100 µM (inactive) and the GI50 (DMS-273) was > 100 µM (inactive). The GI50 (EKVX) was > 100 µM (inactive), the GI50 (HCC 2998) was > 100 µM (inactive) and the GI50 (HCT-116) was > 100 µM (inactive). The GI50 (HCT-15) was > 100 µM, the GI50 (HL-60) was > 100 µM (inactive) and the GI50 (HOP-18) was > 100 µM (inactive). The GI50 (HOP-62) was > 100 µM (inactive), the GI50 (HOP-92) was 56.9 µM (inactive) and the GI50 (HT-29) was > 100 µM (inactive). The GI50 (IGROV-1) was > 100 µM (inactive), the GI50 (K562) was > 100 µM (inactive) and the GI50 (KM-20L2) was > 100 µM (inactive). The GI50 (KM12) was > 100 µM (inactive), the GI50 (LOX IMVI) was > 100 µM (inactive) and the GI50 (LXFL 529) was > 100 µM (inactive). For the same compound, the GI50 (M14) was > 100 µM (inactive), the GI50 (M19-MEL) was > 100 µM (inactive) and the GI50 (MOLT-4) was > 100 µM (inactive). For the same compound, the GI50 (Malme-3M) was > 100 µM (inactive), the GI50 (NCI-H226) was > 100 µM (inactive) and the GI50 (NCI-H23) was > 100 µM (inactive). The GI50 (NCI-H460) was > 100 µM (inactive), the GI50 (NCI-H522) was > 100 µM (inactive) and the GI50 (OVCAR-3) was > 100 µM (inactive). For the same compound, the GI50 (OVCAR-4) was 79.1 µM (inactive), the GI50 (OVCAR-5) was > 100 µM (inactive) and the GI50 (OVCAR-8) was > 100 µM (inactive). For the same compound, the GI50 (RPMI-8226) was > 100 µM (inactive), the GI50 (RXF 393) was > 100 µM (inactive) and the GI50 (RXF 631) was > 100 µM (inactive). The GI50 (SF-268) was > 100 µM (inactive), the GI50 (SF-295) was > 100 µM (inactive) and the GI50 (SF-539) was > 100 µM (inactive). The GI50 (SK-MEL-28) was > 100 µM (inactive), the GI50 (SK-MEL-5) was > 100 µM (inactive) and the GI50 (SK-OV-3) was > 100 µM (inactive). The GI50 (SN12C) was > 100 µM (inactive), the GI50 (SNB-19) was > 100 µM (inactive) and the GI50 (SNB-75) was 53.2 µM (inactive). For the same compound, the GI50 (SNB-78) was > 100 µM (inactive), the GI50 (SR) was > 100 µM (inactive) and the GI50 (SW-620) was > 100 µM (inactive). The GI50 (TK-10) was > 100 µM (inactive), the GI50 (U-251) was > 100 µM (inactive) and the GI50 (UACC-257) was > 100 µM (inactive). For the same compound, the GI50 (UACC-62) was > 100 µM (inactive) and the GI50 (UO-31) was > 100 µM (inactive).
